Assay: In vitro permeation study in Franz cell
Format: in vitro ADME
Settings: receiver pH 7.4
Excerpt: These studies have been carried out using the most commonly used model in in vitro permeation studies. It is the Franz cell which is made up of two compartments separated by a membrane:
a donor compartment in which the composition to be studied is placed,
a membrane preimpregnated with a lipidic solution, made up of a mixture of phospholipids,
a receiver compartment containing an aqueous solution buffered at pH 7.4 under constant agitation, in which the active principle is recovered at regular intervals. Depending on the case, the composition of the medium can vary with the physico-chemical characteristics of the molecule.
These permeation studies were carried out by comparing each dispersed system comprising the lipoamino acid(s) with a simple solution of active principle.
The permeation expresses an active principle quantity which diffuses through a membrane per unit of surface and time (μg/cm^2/h).

SMILES	Permeation (time 0 hours, aciclovir, topical-route system of Example 6 vs simple solution of active principle)	Permeation (time 1 hour, aciclovir, topical-route system of Example 6 vs simple solution of active principle)	Permeation (time 2 hours, aciclovir, topical-route system of Example 6 vs simple solution of active principle)	Permeation (time 3 hours, aciclovir, topical-route system of Example 6 vs simple solution of active principle)	Permeation (time 0 hours, progesterone, oral-route system of Example 3 vs simple solution of active principle)	Permeation (time 0 hours, progesterone, transdermic-route system of Example 4 vs simple solution of active principle)	Permeation (time 1 hour, progesterone, oral-route system of Example 3 vs simple solution of active principle)	Permeation (time 1 hour, progesterone, transdermic-route system of Example 4 vs simple solution of active principle)	Permeation (time 2 hours, progesterone, oral-route system of Example 3 vs simple solution of active principle)	Permeation (time 2 hours, progesterone, transdermic-route system of Example 4 vs simple solution of active principle)	Permeation (time 3 hours, progesterone, oral-route system of Example 3 vs simple solution of active principle)	Permeation (time 3 hours, progesterone, transdermic-route system of Example 4 vs simple solution of active principle)
Nc1nc2c(ncn2COCCO)c(=O)[nH]1 [Aciclovir]	0 μg/cm^2/h	2.35 μg/cm^2/h	4.65 μg/cm^2/h	5.80 μg/cm^2/h								
CC(=O)[C@H]1CC[C@H]2[C@@H]3CCC4=CC(=O)CC[C@]4(C)[C@H]3CC[C@]12C [Progesterone]					0 μg/cm^2/h	0 μg/cm^2/h	0.2 μg/cm^2/h	0.25 μg/cm^2/h	0.4 μg/cm^2/h	0.43 μg/cm^2/h	0.8 μg/cm^2/h	0.85 μg/cm^2/h

— patent US20040147578A1, “Use of lipoaminoacids as absorption promoters in a pharmaceutical composition” (priority 2001, published 2004)
